BindingDB's records for doi:10.1021/jm0201417 (University of Southern California, 2002)

Assays:
[1] = Effective concentration of the compound against viral replication by Reverse transcriptase
[2] = Inhibitory activity against viral attachment

Row | Structure (SMILES) | EC50 [1] [µM] | IC50 [2] [µM]
1 | O=C(NNC(=O)c1ccccc1SSc1ccccc1C(=O)NNC(=O)c1ccccc1S)c1ccccc1S [Compound 3] | 17.8 | > 100
2 | O=C1NNC(=O)c2ccccc2SSc2ccccc2C(=O)NNC(=O)c2ccccc2SSc2ccccc21 [11,12,13,14,25,26,27,28-octahydrotetrabenzo[c,i,m,s][1,2,11,12,6,7,16,17]tetrathiatetraazacycloicosine-11,14,25,28-tetraone] | 6 | –
3 | O=C(NNC(=O)c1ccccc1S)c1ccccc1S [2-Mercapto-benzoic acid N'-(2-mercapto-benzoyl)-hydrazide] | 4.3 | > 100
